US20210259981A1, “COMPOSITIONS AND METHODS OF TREATMENT” (Blueberry Therapeutics Limited, priority 2018, published 2021)
≈ marks a conversion by molar mass, not a printed value.

What was measured:
[1] = system: IL-8 release, THP-1 cells; test: LPS-stimulated IL-8 release in THP-1 cells (inflammation assay); assay type: cell-based, human; conditions: for potency at inhibiting the LPS inflammatory response (in words): IL-8, dose range 0-30 ug/ml; for MIC (inhibiting the LPS IL-8 response): API dose range 0-30 ug/ml
[2] = Franz cell porcine skin permeation, ToF-SIMS cross sectional analysis; assay type: in vitro ADME, pig; conditions: cross sections; 1 mg/ml Diclofenac; partial embedding
Protocol: The experimental work involved applying various formulations to the skin in a Franz cell, leaving it for 24 hours as an infinite dose. Initial formulations were 1 mg/ml Nanocin and 300 ug/ml API in 20% ethanol. The same concentration of formulation were also used using FITC labelled Nanocin. Methods of detection was by: Franz Cell Method 1: Full OCT Embedding Method and Cryo-Sectioning; Franz Cell Method 2: Partial OCT Embedding and Cryo-Sectioning; Franz Cell Method 3: Partial OCT Embedding and Tape Stripping; and Time-of-Flight Secondary Ion Mass Spectrometry (ToF-SIMS) Fluorescence Microscopy.
Porcine ears used for the Franz cell analysis were sourced from a local abattoir. The age of the pig slaughtered were between 4-6 months old. The ears were cleaned with deionised water and the outside skin was carefully removed from the underlying cartilage. The excised skin was then stored at −20° C. until use. All ears used for the permeation experiment were within 6 months after procurement.
Prior to setting up the Franz cells, the skin was defrosted by leaving it at room temperature and pressure. Excess hairs on the porcine skin were not trimmed in this instance (to promote capacity to identify follicular delivery). […]

[3] = Solubility of APIs in ethanol & water vehicles; assay type: physicochemical; conditions: for Solubility in water and ethanol (in words): comparison among the screened APIs
[4] = Franz cell porcine skin permeation, ToF-SIMS tape strip analysis; assay type: in vitro ADME, pig; conditions: for evidence of permeation (key findings): porcine skin, ToF-SIMS imaging and tape stripping, with or without Nanocin
[5] = system: TNF-α release, THP-1 cells; test: LPS-stimulated TNF-α release in THP-1 cells (inflammation assay); assay type: cell-based, human; conditions: final concentration 1 or 0.1 ug/ml; normalised with cell count
Protocol: The release of cytokines (looking particularly at those associated with inflammation-TNF-α, IL-8, IL-1α) after stimulation with lipopolysaccharide (LPS) is a valid model system to test compounds for potential anti-inflammatory effects (Reference 1)
To standardise conditions for the assay, a LPS dose (0-1 ug/ml) was investigated on TNF-α, IL-8 and IL-1α response, over a time period from 2, 4 and 24 hours.
A 1:1 mg/ml (Nanocin:API) was initially formulated in 20% ethanol and the stock formulation was then diluted down with serum free media and tested at a final concentration of 1 or 0.1 ug/ml.

SMILES | potency at inhibiting the LPS inflammatory response (in words) ([1]; THP-1 cells) | MIC (inhibiting the LPS IL-8 response) ([1]; THP-1 cells, 24 h) | Solubility in water and ethanol (in words) [3] | evidence of permeation (key findings) [4] | further results
O=C(O)Cc1ccccc1Nc1c(Cl)cccc1Cl [Diclofenac] | more potent than Ibuprofen | 1 µg/mL (≈ 3.38 µM) | most soluble |  | LPS-stimulated IL-8 response ([1]; final concentration 1 or 0.1 ug/ml, normalised with cell count): reduced; intensity of Cl—, NaCl2- and Na2Cl3- markers in the stratum corneum [2]: slight elevation; presence of NaCl2— and Na2Cl3— ions (diclofenac markers) ([4]; tape strips 1-3, 1 mg/ml Diclofenac): none; LPS-stimulated TNF-α response [5]: reduced
CC(C)Cc1ccc(C(C)C(=O)O)cc1 (stereo not drawn) [Ibuprofen] |  |  | better solubility | no evidence | effect on reducing the IL-8 release ([1]; 30 ug/ml API, LPS 24 h, THP-1 cells): very little effect
C=CC[C@@H]1/C=C(\C)C[C@H](C)C[C@H](OC)[C@H]2O[C@@](O)(C(=O)C(=O)N3CCCC[C@H]3C(=O)O[C@H](/C(C)=C/[C@@H]3CC[C@@H](O)[C@H](OC)C3)[C@H](C)[C@@H](O)CC1=O)[C@H](C)C[C@@H]2OC [Tacrolimus] | more potent than Ibuprofen | 0.3 µg/mL (≈ 0.373 µM) |  | no evidence | anti-inflammatory effect, IL-8 normalised with cell count ([1]; 30 ug/ml API, 10 ug/ml LPS, 24 h): more effective anti-inflammatory; Solubility ([3]; 10 mg/ml API solution, 10% ethanol): x(better)
Cc1ccc(-c2cc(C(F)(F)F)nn2-c2ccc(S(N)(=O)=O)cc2)cc1 [Celecoxib] |  |  | insolubility |  | 
CO[C@H]1C[C@@H]2CC[C@@H](C)[C@@](O)(O2)C(=O)C(=O)N2CCCC[C@H]2C(=O)O[C@H]([C@H](C)C[C@@H]2CC[C@@H](O)[C@H](OC)C2)CC(=O)[C@H](C)/C=C(\C)[C@@H](O)[C@@H](OC)C(=O)[C@H](C)C[C@H](C)/C=C/C=C/C=C/1C [Rapamycin] |  | 1 µg/mL (≈ 1.09 µM) |  | no evidence | 
